Source: paper PMC9784924, “Antiviral Activity and Crystal Structures of HIV-1 gp120 Antagonists” (International Journal of Molecular Sciences, 2022)
Read-outs that look alike come from different tables or passages of the source.

Molecular target: T1, HIV-1 reverse transcriptase (RT) (HIV-1 M:B_HXB2R, UniProt P04585)
T1 construct: gene gag-pol; enzyme of the Colorimetric Reverse Transcriptase Assay kit (Roche); cut from the Gag-Pol polyprotein; with p51 RT
Type: biochemical
Conditions: n = 2
Text: Colorimetric Reverse Transcriptase Assay (Roche) on HIV-1 reverse transcriptase (RT)

| SMILES | IC50 (control) | IC50 |
| --- | --- | --- |
| CC1(C)CC(NC(=O)C(=O)Nc2ccc(Cl)cc2)CC(C)(C)N1 [NBD-556, reference compound] | > 300 µM |  |
| NC[C@H](NC(=O)c1ccc(-c2ccc(C(F)(F)F)cn2)[nH]1)c1ncc(CO)s1 [NBD-14204] |  | 8.3 ± 1.2 µM |
| NC[C@H](NC(=O)c1ccc(-c2cc(F)c(Cl)c(F)c2)[nH]1)c1nc(CO)c(CO)s1 [NBD-14208] |  | 5 ± 0.5 µM |
